Columns and labels:
CAL-62 cells = assay: Clonogenic assay, CAL-62; assay type: cell-based; conditions: Homo sapiens; CAL-62, 48 h, normoxia; read-out: IC50 against colonies formation
Description: Afterward, the selected compounds 3a–d were assayed at 50 μM for 24 and 48 h in CAL-62 and MDA-MB-231 cells to assess their ability to impair the cell viability and colony formation in either normoxia or hypoxia-induced condition, the latter obtained by adding a 200 μM cobalt chloride solution, as described in previous reports[69] (Figure 8). Most cancer cells, mainly solid types, are known to have an altered metabolism due to hypoxia, a non-physiological level of oxygen tension, which contributes to therapy resistance by causing cellular quiescence.[70] Moreover, hypoxic cancer cells can induce several factors that lead to cell proliferation and colony formation.[71]
Cells were seeded in a 100 mm dish and, once at 80–90% confluence, treated as described in the Results and Discussion section. After 24 and 48 h, cells were collected, counted, and 500 cells plated in a 100 mm dish. After about 7 days for CAL62 and 10 days for MDA-MB-231, plates were washed with phosphate-buffered saline solution (PBS); (Merck; 79382), and clones were fixed with 4% formaldehyde solution in PBS (Merck; F8775) at room temperature for 15 min. After that, the dishes were washed with PBS, and clones stained for 5 min with 0.5% crystal violet (Merck; C0775). Finally, the plates were washed with distilled water and air-dried. After scanning each individual dish, the colonies were counted the following day.

[1] = Cell viability / cell death in healthy HaCaT cells; assay type: cell-based, human; conditions: human, HaCaT cells (healthy keratinocytes), HaCaT
Description: Breast cancer cell line MDA-MB-231, anaplastic thyroid cancer cell line CAL-62 and human keratinocytes HaCaT were purchased from ATCC and were cultured in RPMI 1640 medium (R0883 Sigma Aldrich-MERCK) (MDA-MB-231 and CAL-62) or DMEM medium (11965092, Gibco) supplemented with 10% fetal bovine serum (Sigma-Aldrich-MERCK, F9665), 2 mM glutamine (G7513; Sigma-Aldrich-MERCK), 100 units/mL penicillin and 0.1 mg/mL streptomycin (P0781; Sigma-Aldrich-MERCK). Adherent cells were detached by Trypsin–EDTA solution (TA049; Sigma-Aldrich-MERCK). Cells were maintained at 37 °C in humidified incubator with 5% CO2. Cells were treated with […] (CoCl2) (Merck; C8661) dissolved in distilled, sterile water for 24 h to induce hypoxia (200 μM). […] SIRT3 inhibitor 3-TYP was dissolved in DMSO and added to a final concentration of 1 μM for 24 and/or 48 h.
Cell viability was assessed by the trypan blue exclusion assay. At the end of treatments, cells were harvested and stained with 0,4% trypan blue (Merck; T8154). The cell suspension was applied to a hemocytometer and counted with phase contrast microscopy (NIKON EclipseTE2000U, Nikon Netherlands, Amsterdam, The Netherlands).

## CCOC(=O)C1=CN(C(=O)c2cc(OC)cc(OC)c2)C=C(C(=O)OCC)C1c1ccccc1 [Compound 3d, Diethyl 1-(3,5-dimethoxybenzoyl)-4-phenyl-1,4-dihydropyridine-3,5-dicarboxylate]
CAL-62 cells
  IC50: ~2500 nM
[1]; 5 μM, 24 h, read-out: Cell viability (%) T24
  viability at 24 h, 5 µM: 96.1%
[1]; 5 μM, 48 h, read-out: Cell viability (%) T48
  viability at 48 h, 5 µM: 83.9%
[1]; 10 μM, 24 h, read-out: Cell viability (%) T24
  viability at 24 h, 10 µM: 91.6%
[1]; 10 μM, 48 h, read-out: Cell viability (%) T48
  viability at 48 h, 10 µM: 66.1%
[1]; 25 μM, 24 h, read-out: Cell viability (%) T24
  viability at 24 h, 25 µM: 84.7%
[1]; 25 μM, 48 h, read-out: Cell viability (%) T48
  viability at 48 h, 25 µM: 52.7%

From paper PMC10388363, “Novel 1,4-Dihydropyridines as Specific Binders and Activators of SIRT3 Impair Cell Viability and Clonogenicity and Downregulate Hypoxia-Induced Targets in Cancer Cells” (Journal of Medicinal Chemistry, 2023)
